According to patent publication US20040076614A1, “Symbiotic regenerative agent” (priority 2001, published 2004):

Tested on: depression with gastro-intestinal over-growth with Aspergillus and Candida yeasts
Test: Antidepressive effectiveness (proband tests), multi-step method
Assay type: in vivo, human
Set-up: key: − negative; + positive
Settings: Level 0 antidepressants (Seroxat); Level 1 1 g/day oral 4 weeks; Level 2 2 g daily oral 4 weeks after level 1
From the text: Antidepressive effectiveness (2 proband tests/female 1/male 1)
Diseases such as depressions can often be treated in an exclusively symptomatic way with psychopharmaceuticals. However, mycoses/mycotoxins may be the initial cause of such diseases. The object was to eliminate the gastro-intestinal over-growth with Aspergillus and Candida yeasts using BHQ (see also Patent Application EP 00 124 497), and to apply BHQ R6 regenerative agent in a multi-step method.
Level 0: Depression conservatively treated with antidepressants (Seroxat®). The general state of health was subjectively reported as non-satisfactory; in part, depression attacks occurred at different times of day (e.g., in the evening), so that the dosage was increased. The microbiological detection of Candida spec. and Aspergillus spec. was positive. The probands complained about a high weight increase (“spongy feeling”).
Level 1: For 4 weeks, BHQ “flavor-containing medicament” was administered orally once a day for the decontamination of the mycosis and/or any mycotoxins present (1 g/day).
Level 2: As a next step after level 1, BHQ R6 regenerative agent (2 g daily) was administered orally for 4 weeks.

Fc1ccc([C@@H]2CCNC[C@H]2COc2ccc3c(c2)OCO3)cc1 [Seroxat]
General health: −
Weight increase: +
microbiological gastro-intestinal detection: Candida spec. Aspergillus spec.: +
part. status: +
